Measurements: US7517885B2, “Substituted [4-(4-phenyl-piperazin-1-yl)-cyclohexyl]-urea compounds” (Janssen Pharmaceutica N.V., priority 2005, dated 2009)

Columns and labels:
α1a-AR = biological target: T1, α1a-AR (Homo sapiens, UniProt P35348); assay: α1-Adrenergic Receptor Binding Assay (125I-HEAT radio-ligand), α1a subtype; conditions: membranes of COS-7 cells transfected with α1a subtype; 125I-HEAT 50 pM; rt 1 hr
T1 construct: expressed in transfected cells; host or cells: COS-7 cells (membranes)
T1 sequence (P35348 1-455 isoform P35348-4): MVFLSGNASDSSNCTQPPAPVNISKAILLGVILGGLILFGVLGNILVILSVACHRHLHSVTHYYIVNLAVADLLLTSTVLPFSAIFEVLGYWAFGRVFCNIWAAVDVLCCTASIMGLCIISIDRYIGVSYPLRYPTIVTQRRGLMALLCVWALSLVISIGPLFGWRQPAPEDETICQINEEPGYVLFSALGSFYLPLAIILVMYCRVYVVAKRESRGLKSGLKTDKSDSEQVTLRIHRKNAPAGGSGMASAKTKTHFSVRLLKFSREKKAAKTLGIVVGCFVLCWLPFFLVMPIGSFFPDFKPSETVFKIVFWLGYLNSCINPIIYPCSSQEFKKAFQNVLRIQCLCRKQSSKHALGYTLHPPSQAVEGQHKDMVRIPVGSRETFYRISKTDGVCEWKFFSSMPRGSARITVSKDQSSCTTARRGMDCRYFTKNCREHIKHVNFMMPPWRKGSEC
Protocol: (§1) α1-Adrenergic Receptor Binding Assay
(§2) Preparation of COS Cell Membranes
(§3) Membranes were prepared from COS-7 cells (African Green monkey kidney SV40-transformed cells) that had been transfected with one of the three α1-AR subtypes (Genbank accession number for the α1a subtype: AF013261; Genbank accession number for the α1b subtype: NM000679; Genbank accession number for the α1d subtype: NM000678) using the following method: COS cells from ten 100 mm tissue culture plates were scraped into a 5 mL volume of TE (a mixture of 50 mM Tris-HCl, 5 mM EDTA, pH 7.4). […] The disrupted cells were centrifuged at 1000×g min at 4° C. Supernatants were centrifuged at 34,500×g for 20 min at 4° C. The membrane pellets were suspended in a 2 mL volume of TNE (a mixture of 50 mM Tris-HCl, 5 mM EDTA and 150 mM NaCl at pH 7.4). An aliquot of the membrane suspension was stored at −70° C. until use. The protein concentration was determined using the BioRad “DC” protein assay kit following membrane solubilization with Triton X-100.
(§4) Radio-Ligand Binding Assay
(§5) Triplicate determinations of radio-ligand binding in the presence of increasing concentrations of testing compound were made. The reagents were added to 96-well polypropylene plate wells. […] The plate was incubated at rt for 1 hr. The contents of the wells were filtered through a glass filter (type C) (GF/C) membrane Unifilter plate (Packard Instruments) using the Packard Filtermate cell harvester. The filter plates were dried in a vacuum oven for 30 min at 40° C. 25 μL Microscint 20 liquid scintillation fluid (Packard Instruments) was added to each well. The radioactive content was analyzed in the TopCount microplate scintillation counter (Packard Instruments).

α1b-AR = biological target: T2, α1b-AR (Homo sapiens, UniProt P35368); assay: α1-Adrenergic Receptor Binding Assay (125I-HEAT radio-ligand), α1b subtype; conditions: membranes of COS-7 cells transfected with α1b subtype; 125I-HEAT 50 pM; rt 1 hr
T2 construct: expressed in transfected cells; host or cells: COS-7 cells (membranes)
T2 sequence (P35368 1-520): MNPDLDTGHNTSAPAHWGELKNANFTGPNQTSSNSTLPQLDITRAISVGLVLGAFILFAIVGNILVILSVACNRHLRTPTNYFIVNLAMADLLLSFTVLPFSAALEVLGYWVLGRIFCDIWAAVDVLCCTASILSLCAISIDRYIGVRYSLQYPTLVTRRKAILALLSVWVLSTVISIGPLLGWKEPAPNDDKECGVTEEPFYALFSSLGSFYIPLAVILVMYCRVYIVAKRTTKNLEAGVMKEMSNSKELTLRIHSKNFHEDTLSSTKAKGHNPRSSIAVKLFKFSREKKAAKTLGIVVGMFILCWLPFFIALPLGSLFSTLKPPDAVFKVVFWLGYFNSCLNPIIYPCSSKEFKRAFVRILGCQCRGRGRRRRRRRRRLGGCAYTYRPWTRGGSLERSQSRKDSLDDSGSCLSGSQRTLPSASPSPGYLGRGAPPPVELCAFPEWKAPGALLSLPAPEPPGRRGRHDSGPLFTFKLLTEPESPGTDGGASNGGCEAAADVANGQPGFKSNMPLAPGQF
Protocol: as §1, §2, §3, §4, §5

α1d-AR = biological target: T3, α1d-AR (Homo sapiens, UniProt P25100); assay: α1-Adrenergic Receptor Binding Assay (125I-HEAT radio-ligand), α1d subtype; conditions: membranes of COS-7 cells transfected with α1d subtype; 125I-HEAT 50 pM; rt 1 hr
T3 construct: expressed in transfected cells; host or cells: COS-7 cells (membranes)
T3 sequence (P25100 1-572): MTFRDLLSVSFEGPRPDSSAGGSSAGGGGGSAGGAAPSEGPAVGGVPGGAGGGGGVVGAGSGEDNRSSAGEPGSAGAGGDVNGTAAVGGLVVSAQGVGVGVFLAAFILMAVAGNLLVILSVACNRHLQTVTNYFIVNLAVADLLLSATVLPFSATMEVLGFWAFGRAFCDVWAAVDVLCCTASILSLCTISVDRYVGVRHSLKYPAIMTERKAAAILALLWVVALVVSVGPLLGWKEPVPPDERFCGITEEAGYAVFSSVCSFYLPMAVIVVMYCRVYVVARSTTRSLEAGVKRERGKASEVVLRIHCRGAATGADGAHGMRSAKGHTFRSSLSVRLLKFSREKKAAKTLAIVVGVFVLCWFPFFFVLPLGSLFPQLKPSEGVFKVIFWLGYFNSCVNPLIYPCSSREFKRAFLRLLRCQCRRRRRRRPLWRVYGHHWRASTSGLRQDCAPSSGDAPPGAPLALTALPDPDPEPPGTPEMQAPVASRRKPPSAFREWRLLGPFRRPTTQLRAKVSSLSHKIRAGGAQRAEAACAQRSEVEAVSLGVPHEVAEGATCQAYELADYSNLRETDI
Protocol: as §1, §2, §3, §4, §5

[1] = tested on: α1a and α1d subtypes over the α1b subtype; conditions: cited from earlier work

| Structure (SMILES) | Ki (α1a-AR) | Ki (α1b-AR) | Ki (α1d-AR) | selective for the α1a and α1d subtypes over the α1b subtype [1] |
| --- | --- | --- | --- | --- |
| CC(C)Oc1ccccc1N1CCN(C2CCC(NC(=O)Nc3ccccc3OC(F)(F)F)CC2)CC1 (mixture of isomers) [Cpd 30, 1-{4-[4-(2-isopropoxy-phenyl)-piperazin-1-yl]-cyclohexyl}-3-(2-trifluoromethoxy-phenyl)-urea] | 101 nM | 604 nM | 13.4 nM | – |
| CC(C)Oc1ccccc1N1CCN([C@H]2CC[C@@H](NC(=O)NCc3cccc(F)c3)CC2)CC1 [Cpd 5, 1-(3-fluoro-benzyl)-r-3-{c-4-[4-(2-isopropoxy-phenyl)-piperazin-1-yl]-cyclohexyl}-urea] | 82 nM | 706 nM | 62 nM | – |
| CCOc1ccccc1OCCN[C@H](C)Cc1ccc(OC)c(S(N)(=O)=O)c1 [Tamsulosin] | – | – | – | about 15 fold |
| COc1ccc(NC(=O)N[C@H]2CC[C@@H](N3CCN(c4ccccc4OC(C)C)CC3)CC2)cc1Cl [Cpd 34, 1-(3-chloro-4-methoxy-phenyl)-r-3-{c-4-[4-(2-isopropoxy-phenyl)-piperazin-1-yl]-cyclohexyl}-urea] | 73 nM | 493 nM | 28 nM | – |
| CC(C)Oc1ccccc1N1CCN([C@H]2CC[C@@H](NC(=O)Nc3ccc(OC(F)(F)F)cc3)CC2)CC1 [Cpd 31, r-1-{c-4-[4-(2-isopropoxy-phenyl)-piperazin-1-yl]-cyclohexyl}-3-(4-trifluoromethoxy-phenyl)-urea] | 48 nM | 277 nM | 4.5 nM | – |
| CC(C)Oc1ccccc1N1CCN([C@H]2CC[C@@H](NC(=O)Nc3c(Cl)cc(Cl)cc3Cl)CC2)CC1 [Cpd 15, r-1-{c-4-[4-(2-isopropoxy-phenyl)-piperazin-1-yl]-cyclohexyl}-3-(2,4,6-trichloro-phenyl)-urea] | 51.2 nM | 483 nM | 25.3 nM | – |
| CC(C)Oc1ccccc1N1CCN([C@H]2CC[C@@H](NC(=O)Nc3ccccc3Cl)CC2)CC1 [Cpd 9, 1-(2-chloro-phenyl)-r-3-{c-4-[4-(2-isopropoxy-phenyl)-piperazin-1-yl]-cyclohexyl}-urea] | 47.5 nM | 373 nM | 46 nM | – |
| CC(C)Oc1ccccc1N1CCN([C@H]2CC[C@H](NC(=O)Nc3ccc(OC(F)(F)F)cc3)CC2)CC1 [Cpd 32, r-1-{t-4-[4-(2-isopropoxy-phenyl)-piperazin-1-yl]-cyclohexyl}-3-(4-trifluoromethoxy-phenyl)-urea] | 181 nM | 129 nM | 58 nM | – |

Second part, led by results:

| Ki (α1a-AR) | Ki (α1b-AR) | Ki (α1d-AR) | Structure (SMILES) | selective for the α1a and α1d subtypes over the α1b subtype [1] |
| --- | --- | --- | --- | --- |
| 11.4 nM | 39 nM | 3 nM | CC(C)Oc1ccccc1N1CCN([C@H]2CC[C@H](NC(=O)Nc3ccccc3Cl)CC2)CC1 [Cpd 10, 1-(2-chloro-phenyl)-r-3-{t-4-[4-(2-isopropoxy-phenyl)-piperazin-1-yl]-cyclohexyl}-urea] | – |
| 38 nM | 430 nM | 8.4 nM | CC(C)Oc1ccccc1N1CCN(C2CCC(NC(=O)Nc3ccccc3Oc3ccccc3)CC2)CC1 (mixture of isomers) [Cpd 17, 1-{4-[4-(2-isopropoxy-phenyl)-piperazin-1-yl]-cyclohexyl}-3-(2-phenoxy-phenyl)-urea] | – |
| 13 nM | 108 nM | 2.3 nM | COc1ccc(NC(=O)N[C@H]2CC[C@H](N3CCN(c4ccccc4OC(C)C)CC3)CC2)cc1Cl [Cpd 35, 1-(3-chloro-4-methoxy-phenyl)-r-3-{t-4-[4-(2-isopropoxy-phenyl)-piperazin-1-yl]-cyclohexyl}-urea] | – |
| 25.8 nM | 259 nM | 52.5 nM | CC(C)Oc1ccccc1N1CCN([C@H]2CC[C@@H](NC(=O)Nc3cc(F)ccc3F)CC2)CC1 [Cpd 24, 1-(2,5-difluoro-phenyl)-r-3-{c-4-[4-(2-isopropoxy-phenyl)-piperazin-1-yl]-cyclohexyl}-urea] | – |
| 23.4 nM | 153 nM | 21.6 nM | COc1ccc(NC(=O)N[C@H]2CC[C@H](N3CCN(c4ccccc4OC(C)C)CC3)CC2)c(C)c1 [Cpd 21, r-1-{t-4-[4-(2-isopropoxy-phenyl)-piperazin-1-yl]-cyclohexyl}-3-(4-methoxy-2-methyl-phenyl)-urea] | – |
| 1.7 nM | 36.4 nM | 1.2 nM | CC(C)Oc1ccccc1N1CCN([C@H]2CC[C@H](NC(=O)Nc3cc(F)ccc3F)CC2)CC1 [Cpd 25, 1-(2,5-difluoro-phenyl)-r-3-{t-4-[4-(2-isopropoxy-phenyl)-piperazin-1-yl]-cyclohexyl}-urea] | – |
